Results: patent US20230015308A1, “SUBSTITUTED THIAZOLE AROMATIC RING-BASED COMPOUND AND PREPARATION METHOD THEREFOR, HERBICIDAL COMPOSITION AND USE THEREOF” (QINGDAO KINGAGROOT CHEMICAL COMPOUND CO., LTD., priority 2019, published 2023)

Key:
Assay in all cases: Weeding effect in post-emergence stage (greenhouse pot test)
Format in all cases: in vivo
Details in all cases: 15 g a.i./ha, 3 weeks after application
[1] = test system: Amaranthus retroflexus
Description: (§1) The activity level criteria for plant damage (i.e., growth control rate) are as follows:
(§2) Level 5: growth control rate is above 85%;
(§3) Level 4: growth control rate is greater than or equal to 60% and less than 85%;
(§4) Level 3: growth control rate is greater than or equal to 40% and less than 60%;
(§5) Level 2: growth control rate is greater than or equal to 20% and less than 40%;
(§6) Level 1: growth control rate is greater than or equal to 5% and less than 20%;
(§7) Level 0: growth control rate is less than 5%.
(§8) The above growth control rates are fresh weight control rates.
(§9) Experiment on weeding effect in post-emergence stage:
(§10) Monocotyledonous and dicotyledonous weed seeds (Descurainia sophia, Capsella bursa-pastoris, Abutilon theophrasti, Galium aparine, Stellaria media, Lithospermum arvense, Rorippa indica, Alopecurus aequalis, Alopecurus japonicus, Beckmannia syzigachne, Sclerochloa dura, Conyza Canadensis, Phleum paniculatum, Veronica didyma Tenore, Eleusine indica, Bromus japonicus, Aegilops tauschii, Phalaris arundinacea, Amaranthus retroflexus, Chenopodium album, Commelina communis, Sonchus arvensis, Convolvulus arvensis, Cirsium setosum, Solanum nigrum, Acalypha australis, Digitaria sanguinalis, Echinochloa crusgalli, Setaria viridis, Setaria glauca, Leptochloa chinensis, Monochoria vaginalis, Sagittaria trifolia, Scirpus juncoides, Cyperus rotundus, Cyperus iria, Cyperus difformis, Fimbristylis, Portulaca oleracea, Xanthium sibiricum, Pharbitis nil) and major crop seeds (wheat, corn, rice, soybean, cotton, oilseed rape, millet, sorghum, potato, sesame, ricinus) were placed in plastic pots filled with soil, then covered with 0.5-2 cm of soil, allowed to grow in a good greenhouse environment. After 2 weeks of sowing, the test plants were treated in the 2-3 leaf stage. The tested compounds of the present invention were respectively dissolved in acetone, then added with Tween 80 and 1.5 liter/ha of emulsifiable concentrate of methyl oleate as synergist, diluted with a certain amount of water to obtain a solution with a certain concentration, and sprayed with a spray tower onto the plants. After the application, the plants were cultured for 3 weeks in the greenhouse, and then the experimental results of the weeding were counted. The doses of the used compounds were 500, 250, 125, 60, 15 g a.i./ha, and the averages were obtained by repeating for three times.

[2] = test system: Alopecurus japonicus
Description: as §1, §2, §3, §4, §5, §6, §7, §8, §9, §10

[3] = test system: Digitaria sanguinalis
Description: as §1, §2, §3, §4, §5, §6, §7, §8, §9, §10

[4] = test system: Abutilon theophrasti
Description: as §1, §2, §3, §4, §5, §6, §7, §8, §9, §10

[5] = test system: Veronica didyma Tenore
Description: as §1, §2, §3, §4, §5, §6, §7, §8, §9, §10

[6] = test system: Setaria viridis
Description: as §1, §2, §3, §4, §5, §6, §7, §8, §9, §10

[7] = test system: Galium aparine
Description: as §1, §2, §3, §4, §5, §6, §7, §8, §9, §10

[8] = test system: Echinochloa crusgalli
Description: as §1, §2, §3, §4, §5, §6, §7, §8, §9, §10

[9] = test system: Beckmannia syzigachne
Description: as §1, §2, §3, §4, §5, §6, §7, §8, §9, §10

CCOC(=O)c1cnc(-c2cc(-n3c(=O)cc(C(F)(F)F)n(C)c3=O)c(F)cc2Cl)s1 [1-2]
Amaranthus retroflexus, activity level (fresh weight growth control rate) [1]: 5 (Level 5: growth control rate is above 85%)
Alopecurus japonicus, activity level (fresh weight growth control rate) [2]: 4 (Level 4: growth control rate is greater than or equal to 60% and less than 85%)
Digitaria sanguinalis, activity level (fresh weight growth control rate) [3]: 5 (Level 5: growth control rate is above 85%)
Abutilon theophrasti, activity level (fresh weight growth control rate) [4]: 5 (Level 5: growth control rate is above 85%)
Veronica didyma Tenore, activity level (fresh weight growth control rate) [5]: 5 (Level 5: growth control rate is above 85%)
Setaria viridis, activity level (fresh weight growth control rate) [6]: 5 (Level 5: growth control rate is above 85%)
Galium aparine, activity level (fresh weight growth control rate) [7]: 5 (Level 5: growth control rate is above 85%)
Echinochloa crusgalli, activity level (fresh weight growth control rate) [8]: 5 (Level 5: growth control rate is above 85%)
Beckmannia syzigachne, activity level (fresh weight growth control rate) [9]: 4 (Level 4: growth control rate is greater than or equal to 60% and less than 85%)

C=CCOC(=O)c1cnc(-c2cc(-n3c(=O)cc(C(F)(F)F)n(C)c3=O)c(F)cc2Cl)s1 [1-10]
Amaranthus retroflexus, activity level (fresh weight growth control rate) [1]: 5 (Level 5: growth control rate is above 85%)
Alopecurus japonicus, activity level (fresh weight growth control rate) [2]: 3 (Level 3: growth control rate is greater than or equal to 40% and less than 60%)
Digitaria sanguinalis, activity level (fresh weight growth control rate) [3]: 4 (Level 4: growth control rate is greater than or equal to 60% and less than 85%)
Abutilon theophrasti, activity level (fresh weight growth control rate) [4]: 5 (Level 5: growth control rate is above 85%)
Veronica didyma Tenore, activity level (fresh weight growth control rate) [5]: 5 (Level 5: growth control rate is above 85%)
Setaria viridis, activity level (fresh weight growth control rate) [6]: 5 (Level 5: growth control rate is above 85%)
Galium aparine, activity level (fresh weight growth control rate) [7]: 5 (Level 5: growth control rate is above 85%)
Echinochloa crusgalli, activity level (fresh weight growth control rate) [8]: 5 (Level 5: growth control rate is above 85%)
Beckmannia syzigachne, activity level (fresh weight growth control rate) [9]: 3 (Level 3: growth control rate is greater than or equal to 40% and less than 60%)

C#CCOC(=O)c1cnc(-c2cc(-n3c(=O)cc(C(F)(F)F)n(C)c3=O)c(F)cc2Cl)s1 [1-12]
Amaranthus retroflexus, activity level (fresh weight growth control rate) [1]: 5 (Level 5: growth control rate is above 85%)
Alopecurus japonicus, activity level (fresh weight growth control rate) [2]: 3 (Level 3: growth control rate is greater than or equal to 40% and less than 60%)
Digitaria sanguinalis, activity level (fresh weight growth control rate) [3]: 5 (Level 5: growth control rate is above 85%)
Abutilon theophrasti, activity level (fresh weight growth control rate) [4]: 5 (Level 5: growth control rate is above 85%)
Veronica didyma Tenore, activity level (fresh weight growth control rate) [5]: 5 (Level 5: growth control rate is above 85%)
Setaria viridis, activity level (fresh weight growth control rate) [6]: 5 (Level 5: growth control rate is above 85%)
Galium aparine, activity level (fresh weight growth control rate) [7]: 5 (Level 5: growth control rate is above 85%)
Echinochloa crusgalli, activity level (fresh weight growth control rate) [8]: 5 (Level 5: growth control rate is above 85%)
Beckmannia syzigachne, activity level (fresh weight growth control rate) [9]: 3 (Level 3: growth control rate is greater than or equal to 40% and less than 60%)

Cn1c(C(F)(F)F)cc(=O)n(-c2cc(-c3ncc(C(=O)OCC4CCCO4)s3)c(Cl)cc2F)c1=O (centres unmarked) [1-33]
Amaranthus retroflexus, activity level (fresh weight growth control rate) [1]: 5 (Level 5: growth control rate is above 85%)
Alopecurus japonicus, activity level (fresh weight growth control rate) [2]: 3 (Level 3: growth control rate is greater than or equal to 40% and less than 60%)
Digitaria sanguinalis, activity level (fresh weight growth control rate) [3]: 5 (Level 5: growth control rate is above 85%)
Abutilon theophrasti, activity level (fresh weight growth control rate) [4]: 5 (Level 5: growth control rate is above 85%)
Veronica didyma Tenore, activity level (fresh weight growth control rate) [5]: 5 (Level 5: growth control rate is above 85%)
Setaria viridis, activity level (fresh weight growth control rate) [6]: 5 (Level 5: growth control rate is above 85%)
Galium aparine, activity level (fresh weight growth control rate) [7]: 5 (Level 5: growth control rate is above 85%)
Echinochloa crusgalli, activity level (fresh weight growth control rate) [8]: 5 (Level 5: growth control rate is above 85%)
Beckmannia syzigachne, activity level (fresh weight growth control rate) [9]: 3 (Level 3: growth control rate is greater than or equal to 40% and less than 60%)

Cn1c(C(F)(F)F)cc(=O)n(-c2cc(-c3ncc(C(=O)OCc4ccccc4)s3)c(Cl)cc2F)c1=O [1-35]
Amaranthus retroflexus, activity level (fresh weight growth control rate) [1]: 5 (Level 5: growth control rate is above 85%)
Digitaria sanguinalis, activity level (fresh weight growth control rate) [3]: 3 (Level 3: growth control rate is greater than or equal to 40% and less than 60%)
Abutilon theophrasti, activity level (fresh weight growth control rate) [4]: 5 (Level 5: growth control rate is above 85%)
Veronica didyma Tenore, activity level (fresh weight growth control rate) [5]: 5 (Level 5: growth control rate is above 85%)
Setaria viridis, activity level (fresh weight growth control rate) [6]: 5 (Level 5: growth control rate is above 85%)
Galium aparine, activity level (fresh weight growth control rate) [7]: 5 (Level 5: growth control rate is above 85%)
Echinochloa crusgalli, activity level (fresh weight growth control rate) [8]: 4 (Level 4: growth control rate is greater than or equal to 60% and less than 85%)

COC(=O)C(C)OC(=O)c1cnc(-c2cc(-n3c(=O)cc(C(F)(F)F)n(C)c3=O)c(F)cc2Cl)s1 (centres unmarked) [1-48]
Amaranthus retroflexus, activity level (fresh weight growth control rate) [1]: 5 (Level 5: growth control rate is above 85%)
Digitaria sanguinalis, activity level (fresh weight growth control rate) [3]: 4 (Level 4: growth control rate is greater than or equal to 60% and less than 85%)
Abutilon theophrasti, activity level (fresh weight growth control rate) [4]: 5 (Level 5: growth control rate is above 85%)
Veronica didyma Tenore, activity level (fresh weight growth control rate) [5]: 5 (Level 5: growth control rate is above 85%)
Setaria viridis, activity level (fresh weight growth control rate) [6]: 5 (Level 5: growth control rate is above 85%)
Galium aparine, activity level (fresh weight growth control rate) [7]: 5 (Level 5: growth control rate is above 85%)
Echinochloa crusgalli, activity level (fresh weight growth control rate) [8]: 5 (Level 5: growth control rate is above 85%)

CC(C)=NOC(=O)c1cnc(-c2cc(-n3c(=O)cc(C(F)(F)F)n(C)c3=O)c(F)cc2Cl)s1 [1-55]
Amaranthus retroflexus, activity level (fresh weight growth control rate) [1]: 5 (Level 5: growth control rate is above 85%)
Digitaria sanguinalis, activity level (fresh weight growth control rate) [3]: 5 (Level 5: growth control rate is above 85%)
Abutilon theophrasti, activity level (fresh weight growth control rate) [4]: 5 (Level 5: growth control rate is above 85%)
Veronica didyma Tenore, activity level (fresh weight growth control rate) [5]: 5 (Level 5: growth control rate is above 85%)
Setaria viridis, activity level (fresh weight growth control rate) [6]: 5 (Level 5: growth control rate is above 85%)
Galium aparine, activity level (fresh weight growth control rate) [7]: 5 (Level 5: growth control rate is above 85%)
Echinochloa crusgalli, activity level (fresh weight growth control rate) [8]: 5 (Level 5: growth control rate is above 85%)

CCOC(=O)c1csc(-c2cc(-n3c(=O)cc(C(F)(F)F)n(C)c3=O)c(F)cc2Cl)n1 [2-2]
Amaranthus retroflexus, activity level (fresh weight growth control rate) [1]: 5 (Level 5: growth control rate is above 85%)
Digitaria sanguinalis, activity level (fresh weight growth control rate) [3]: 4 (Level 4: growth control rate is greater than or equal to 60% and less than 85%)
Abutilon theophrasti, activity level (fresh weight growth control rate) [4]: 5 (Level 5: growth control rate is above 85%)
Veronica didyma Tenore, activity level (fresh weight growth control rate) [5]: 5 (Level 5: growth control rate is above 85%)
Galium aparine, activity level (fresh weight growth control rate) [7]: 5 (Level 5: growth control rate is above 85%)

CCOC(=O)c1csc(-c2cc(-n3c(=O)n(C)c(=S)n(C)c3=O)c(F)cc2Cl)n1 [2-113]
Amaranthus retroflexus, activity level (fresh weight growth control rate) [1]: 5 (Level 5: growth control rate is above 85%)
Veronica didyma Tenore, activity level (fresh weight growth control rate) [5]: 5 (Level 5: growth control rate is above 85%)
Galium aparine, activity level (fresh weight growth control rate) [7]: 5 (Level 5: growth control rate is above 85%)

COC(=O)c1nc(-c2cc(-n3c(=O)cc(C(F)(F)F)n(C)c3=O)c(F)cc2Cl)cs1 [4-1]
Amaranthus retroflexus, activity level (fresh weight growth control rate) [1]: 5 (Level 5: growth control rate is above 85%)
Veronica didyma Tenore, activity level (fresh weight growth control rate) [5]: 5 (Level 5: growth control rate is above 85%)
Echinochloa crusgalli, activity level (fresh weight growth control rate) [8]: 4 (Level 4: growth control rate is greater than or equal to 60% and less than 85%)

COC(=O)c1nc(-c2cc(-n3c(=O)n(C)c(=S)n(C)c3=O)c(F)cc2Cl)cs1 [4-158]
Amaranthus retroflexus, activity level (fresh weight growth control rate) [1]: 5 (Level 5: growth control rate is above 85%)
Veronica didyma Tenore, activity level (fresh weight growth control rate) [5]: 5 (Level 5: growth control rate is above 85%)
Galium aparine, activity level (fresh weight growth control rate) [7]: 5 (Level 5: growth control rate is above 85%)
